Counter-ions that a name gives are not always drawn.
Columns and labels:
[1] = biological target: T1, Dipeptidylpeptidase IV, Human Placenta (Homo sapiens, UniProt P27487); assay: Active inhibition DPP IV assay (DPP IV-Glo Protease Assay Kit, chemical luminescent); type: biochemical; settings: chemiluminescence, two parallel treatments
T1 construct: Dipeptidylpeptidase IV, Human Placenta (cat. 317630) of Calbiochem company; purchased Calbiochem 317630; host or cells: human placenta (tissue-derived natural enzyme)
Protocol: IC50 is determined by a NovoStar ELIASA (BMG Co. German).
According to the manual of the kit, this invention inspected the amount of the each reagent in the experimental, corresponding amount of DPPIV enzyme and chemiluminescence detection methods.

normal ICR mice = assay: Preliminary evaluation of hypoglycemic activity: effects on glucose tolerance in normal ICR mice; type: in vivo; settings: oral 0.3, 1, 3, 10 mg/kg, serum glucose
Protocol: Effects on glucose tolerance in normal ICR mice of examples 15 and 16 were determined. Hypoglycemic activities in vivo were preliminary evaluated. Preparation procedure: drugs were accurately weighed and dissolved in double-distilled water, misce bene to obtain 0.5 mg/ml suspension, then diluted into colorless and clear solutions which concentration were 0.15, 0.05 and 0.015 mg/ml. Administrated Dose: the oral doses were 0.3, 1, 3, 10 mg/kg and the volume was 20 ml/kg. […] Glucose kits was used in the determination of serum glucose levels. Take 250 μl enzyme fluid, then add 5 μl serum. Establish blank tube (by added 5 μl double-distilled) and the standard tube (by added 5 μl standard glucose solution) simultaneously, misce bene. 37° C. water bath for 20 min. To adjust to zero value with blank tube, OD(505 nm) levels were determined. Serum glucose level BG(mmol/l)=ODsample tube/ODstandard tube×5.55.

T1 sequence (P27487 whole entry): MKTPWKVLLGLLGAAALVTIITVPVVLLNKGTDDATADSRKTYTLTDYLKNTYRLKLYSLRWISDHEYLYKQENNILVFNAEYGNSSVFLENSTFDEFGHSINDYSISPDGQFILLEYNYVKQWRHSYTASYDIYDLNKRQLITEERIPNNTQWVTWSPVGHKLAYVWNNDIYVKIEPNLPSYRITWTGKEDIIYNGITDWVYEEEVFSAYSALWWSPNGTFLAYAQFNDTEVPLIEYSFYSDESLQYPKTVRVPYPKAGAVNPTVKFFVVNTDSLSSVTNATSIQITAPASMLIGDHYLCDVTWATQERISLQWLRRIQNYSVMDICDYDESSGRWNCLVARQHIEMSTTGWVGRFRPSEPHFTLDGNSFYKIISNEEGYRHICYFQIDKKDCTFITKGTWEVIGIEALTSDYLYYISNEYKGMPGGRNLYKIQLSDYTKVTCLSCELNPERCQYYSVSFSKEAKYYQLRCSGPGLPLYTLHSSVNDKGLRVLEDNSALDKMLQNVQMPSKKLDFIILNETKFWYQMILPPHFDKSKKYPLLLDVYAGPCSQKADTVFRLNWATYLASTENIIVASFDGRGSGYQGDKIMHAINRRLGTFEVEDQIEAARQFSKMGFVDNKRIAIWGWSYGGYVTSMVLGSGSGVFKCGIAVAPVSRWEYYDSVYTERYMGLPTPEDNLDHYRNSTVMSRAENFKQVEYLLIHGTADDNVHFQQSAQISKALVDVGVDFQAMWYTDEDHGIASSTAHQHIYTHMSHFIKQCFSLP

Structure (SMILES) | IC50 [1] | in vivo activity compared with positive control LAF-237 (normal ICR mice) | inhibitor activity of DPPIV in vivo (hypoglycemic activity, glucose tolerance) (normal ICR mice)
CC(C)NC(=O)OC1CC2CC(NCC(=O)N3CCCC3C#N)CC2C1 (stereo not shown) [Example 7, 5-[2-(2-cyano-pyrrolidin-1-yl)-2-oxo-ethylamino]-octahydro-pentalen-2-yl isopropyl-carbamate hydrochloride] | 0.204 µM |  | 
CCCCC1(O)CC2CC(NCC(=O)N3CCCC3C#N)CC2C1 (stereo not shown) [Example 10, 1-[2-(5-butyl-5-hydroxy-octahydro-pentalen-2-ylamino)-acetyl]-pyrrolidine-2-carbonitrilehydrochloride] | 0.0183 µM |  | 
N#CC1CCCN1C(=O)CNC1CC2CC(OC(=O)Nc3ccccc3)CC2C1 (stereo not shown) [Example 6, 5-[2-(2-cyano-pyrrolidin-1-yl)-2-oxo-ethylamino]-octahydro-pentalen-2-yl phenyl-carbamate hydrochloride] | 0.121 µM |  | 
Cl.N#CC1CCCN1C(=O)CNC1CC2CC(O)CC2C1 (stereo not shown) [Example 16, 1-(2-(5-hydroxyl-octahydro-pentalen-2-ylamino)-acetyl)pyrrolidine-2-carbonitrile hydrochloride] |  | slightly better than LAF-237 | good inhibitor activities of DPPIV in vivo
CC(C)(C)NC(=O)OC1CC2CC(NCC(=O)N3CCCC3C#N)CC2C1 (stereo not shown) [Example 8, 5-[2-(2-cyano-pyrrolidin-1-yl)-2-oxo-ethylamino]-octahydro-pentalen-2-yl tert-butyl-carbamate hydrochloride] | 0.326 µM |  | 
Cl.N#CC1CCCN1C(=O)CNC1CC2CC(=O)CC2C1 (stereo not shown) [Example 15, 1-[2-(5-oxo-octahydro-pentalen-2-ylamino)-acetyl]-pyrrolidine-2-carbonitrile hydrochloride] |  |  | good inhibitor activities of DPPIV in vivo

Source: patent US20090176847A1, “Dicyclooctane Derivatives, Preparation Processes and Medical Uses Thereof” (priority 2006, published 2009)
